Reference: patent US20260337190A1, “CRYSTAL FORM OF PYRIDINOPYRIMIDINONE COMPOUND, ACID SALT THEREOF, CRYSTAL FORM OF ACID SALT THEREOF, AND USE” (Wuhan Humanwell Innovative Drug Research and Development …, priority 2022, published 2026)
Structures can show the parent of a compound that is named as a salt.

Experiments:
[1] = Solid state stability (25 °C/60% RH and 40 °C/75% RH, one week; XRPD and HPLC); type: physicochemical
Procedure: The purity test, dynamic solubility test, and stability test in the assay were measured with an Agilent 1260 high-performance liquid chromatograph, and the salt formation molar ratio of ions was tested by ion chromatography, and the analytical conditions are shown in Table 5 and Table 6.

[2] = Dynamic solubility in water, SGF, FaSSIF and FeSSIF; type: physicochemical; details: 37 °C
Procedure: Purified water was added to complete dissolution.

| HPLC results Purity (solid state stability) ([1]; 25 °C/60% RH/open, 1 week) | HPLC results Purity (solid state stability) ([1]; 40 °C/75% RH/open, 1 week) | HPLC results Purity (solid state stability) ([1]; Onset) | pH of filtrate ([2]; FaSSIF, 1 hour) | pH of filtrate ([2]; FaSSIF, 4 hours) | pH of filtrate ([2]; FaSSIF, 24 hours) | pH of filtrate ([2]; FeSSIF, 1 hour) | pH of filtrate ([2]; FeSSIF, 4 hours) | pH of filtrate ([2]; FeSSIF, 24 hours) | pH of filtrate ([2]; H2O, 1 hour) | pH of filtrate ([2]; H2O, 4 hours) | pH of filtrate ([2]; H2O, 24 hours) | pH of filtrate ([2]; SGF, 1 hour) | pH of filtrate ([2]; SGF, 4 hours) | pH of filtrate ([2]; SGF, 24 hours) | also measured | Compound |
| --- | --- | --- | --- | --- | --- | --- | --- | --- | --- | --- | --- | --- | --- | --- | --- | --- |
| 97.13 area % | 97.14 area % | 97.06 area % | – | – | – | – | – | – | – | – | – | – | – | – | – | Cc1nc(N[C@H](C)c2cccc(S(F)(F)(F)(F)F)c2)c2cn(C3(CF)CC3)c(=O)cc2n1 [Crystal form A compound formula I] |
| 99.15 area % | 99.29 area % | 99.10 area % | – | – | – | – | – | – | – | – | – | – | – | – | – | Cc1nc(N[C@H](C)c2cccc(S(F)(F)(F)(F)F)c2)c2cn(C3(CF)CC3)c(=O)cc2n1 [Crystal form A ethanesulfonate salt] |
| 98.67 area % | 98.70 area % | 98.67 area % | – | – | – | – | – | – | – | – | – | – | – | – | – | Cc1nc(N[C@H](C)c2cccc(S(F)(F)(F)(F)F)c2)c2cn(C3(CF)CC3)c(=O)cc2n1 [Crystal form A fumarate salt] |
| – | – | – | 6.3 | 6.3 | 6.4 | 5.1 | 5.1 | 5.1 | 5.4 | 6.0 | 5.8 | 3.2 | 3.3 | 3.2 | S: solubility ([2]; FeSSIF, 1 hour, 60 min): 2720 µg/mL | Cc1nc(N[C@H](C)c2cccc(S(F)(F)(F)(F)F)c2)c2cn(C3(CF)CC3)c(=O)cc2n1 [Crystal form A of compound of formula I] |
| – | – | – | 4.5 | 4.2 | 3.7 | 4.8 | 4.8 | 4.7 | 2.9 | 3.1 | 2.8 | 1.6 | 1.5 | 1.5 | S: solubility ([2]; FaSSIF, 4 hours, 240 min): 1610 µg/mL; S: solubility ([2]; FeSSIF, 4 hours, 240 min): 3620 µg/mL; S: solubility ([2]; H2O, 1 hour, 60 min): 10060 µg/mL; S: solubility ([2]; H2O, 4 hours, 240 min): 9810 µg/mL; S: solubility ([2]; H2O, 24 hours, 1440 min): 10080 µg/mL; S: solubility ([2]; SGF, 4 hours, 240 min): 10130 µg/mL; S: solubility ([2]; SGF, 24 hours, 1440 min): 10110 µg/mL | Cc1nc(N[C@H](C)c2cccc(S(F)(F)(F)(F)F)c2)c2cn(C3(CF)CC3)c(=O)cc2n1 [Crystal form A of ethanesulfonate salt] |
| – | – | – | 4.8 | 4.6 | 4.3 | 4.6 | 4.8 | 4.7 | 4.2 | 4.2 | 4.1 | 1.8 | 2.0 | 1.7 | solubility at 1 h ([2]; fessif, 1 hour, read-out: S: solubility): 3510 µg/mL; solubility at 4 h ([2]; fessif, 4 hours, read-out: S: solubility): 2390 µg/mL; solubility at 24 h ([2]; fessif, 24 hours, read-out: S: solubility): 2180 µg/mL | Cc1nc(N[C@H](C)c2cccc(S(F)(F)(F)(F)F)c2)c2cn(C3(CF)CC3)c(=O)cc2n1 [Crystal form A of fumarate salt] |
| – | – | – | 4.3 | 4.4 | 4.0 | 4.8 | 4.8 | 4.8 | 3.5 | 3.5 | 3.1 | 1.7 | 1.8 | 1.6 | S: solubility ([2]; FeSSIF, 1 hour, 60 min): 4040 µg/mL | Cc1nc(N[C@H](C)c2cccc(S(F)(F)(F)(F)F)c2)c2cn(C3(CF)CC3)c(=O)cc2n1 [Crystal form A of methanesulfonate salt] |
| – | – | – | 4.5 | 3.9 | 3.6 | 4.8 | 4.6 | 4.5 | 3.5 | 3.5 | 3.3 | 2.5 | 2.6 | 2.4 | – | Cc1nc(N[C@H](C)c2cccc(S(F)(F)(F)(F)F)c2)c2cn(C3(CF)CC3)c(=O)cc2n1 [Crystal form B of citrate salt] |
